Source: patent US4740499A, “Method of enhancing the bioactivity of atrial peptides” (Monsanto Company, priority 1986, dated 1988)
Where a SMILES comes first, the peptide text is derived from it. Bridges are numbered along the chain shown (N, C = ends).

How the values were obtained:
[1] = tested on: rabbit kidney brush border membranes (RBBM); assay: physchem; type: biochemical; conditions: for Effect of inhibitor on atrial peptide bioactivity during incubation with renal brush border membranes: nanomolar (low) concentrations of inhibitor
Description: (§1) The kelatorphan was prepared according to the method described for compound 13 by Fournie-Saluski et al., J. Med. Chem. 28, 1158-1169 (1985). The following procedure was performed at 4° C. Rabbit kidneys were obtained fresh and were perfused with buffer A (containing 5 mM Tris, pH 7.5, 0.25 M sucrose, 3 mM MgCl2 and 1 mM EDTA) to remove the blood. (EDTA=ethylenediaminetetraacetic acid.) The kidneys were minced, homogenized in 5 volumes of ice-cold buffer A with a Brinkmann Polytron homogenizer and filtered through two layers of cheesecloth. The filtrate was centrifuged at 5,000×g for 20 min, the pellet was discarded and the supernatant was centrifuged at 15,000×g for 20 min. The supernatant was retained and then centrifuged at 100,000×g for 90 min. The pellet was resuspended in 50 mM Tris, pH 7.5, and the suspension was centrifuged at 100,000×g for 90 min. The washed pellet was resuspended in 50 mM Tris, pH 7.5, to give a final protein concentration of 4 mg/ml using the protein assay of Bradford, Anal. Biochem. 72, 248-254 (1976). The membrane preparation was assayed for aminopeptidase and alkaline phosphatase activities which are the marker enzymes for the kidney brush border. See Inui et al., Biochim. Biophys. Acta 647, 150-154 (1981). The final membrane preparation was enriched 8-fold in alkaline phosphatase activity, and 11-fold in aminopeptidase activity, compared to the homogenate. Renal brush border membranes (10-20 μg) were preincubated for 15 min at 25° C. in a solution containing the inhibitor and 50 mM Tris, pH 7.5. […] Incubations were for 60 min at 25° C. and were terminated by removing the membranes by filtration using Gelman GA-6 filters. The filtrates were immediately frozen on dry ice and were stable for 1 week when stored at -80° C. Samples containing the peptide degradation products were resolved by C18 reversed phase high pressure liquid chromatography (HPLC). The frozen samples were thawed immediately before injection onto a Vydac C18 column (4.6 mm I.D.×25 cm; 5 micron/300 Å) equilibrated with water containing 0.05% trifluoracetic acid (TFA). Peptide fragments and starting material were separated on a linear gradient of 0-35% acetonitrile also containing 0.05% TFA. Both the gradient and the flow rate (1 ml/min) were maintained by a Waters HPLC system consisting of two Model 510 pumps connected to an Automated Gradient Controller. Column effluent was monitored at 220 nm by a Waters Model 481 spectrophotometer, and the amount of atrial peptide material and peptide fragments were measured via a Hewlett-Packard Model […] integrator. […] Therefore, in those cases where the N-terminal serine was removed, the total amount of biologically active material remaining at the end of the incubation was taken as the % starting material remaining plus % des […] -AP-I or des […] -AP-III (as appropriate), as calculated from the peak areas of the individual peptides on HPLC.

[2] = physchem; type: biochemical, rabbit; conditions: pH 7.5, Peak area as % Initial AP: AP
Description: as §1

[3] = Plasma AP-III levels (radioimmunoassay) in rats, first test: constant AP-III infusion, varied thiorphan dose; type: in vivo, rat; conditions: male, Sprague-Dawley, rat, in vivo, iv
Description: (§2) Plasma levels of atriopeptin III (AP-III) were tested in rats in which the AP-III was infused intravenously both with and without contemporaneous administration of thiorphan.
(§3) Male Sprague-Dawley rats, 240-310 g, were used for all tests. The rats were housed in the test facilities for at least 6 days before they were used.
(§4) Cannulas were made of PE-10 (polyethylene) tubing inserted and glued into a piece of PE-50 tubing. Rats were anesthetized with pentobarbital (50 mg/kg i.p.) and had cannulas inserted into the left femoral vein and artery. Both were inserted four cm into the vessels and tied securely. They were then tunnelled under the skin and brought out between the rat's shoulder blades and then cut so that only 1-2 cm was externalized. Cannulas were glued in place using Superglue and filled with saline containing 100 units heparin/ml. Rats were allowed to wake up and then housed individually with food and water ad libitum.
(§5) Two days after surgery, the rats were weighed and put into restraining cages that allowed limited movement. […] Blood was collected from the femoral artery and replaced with saline containing 10 units heparin/ml. In most tests, 0.3 ml blood was taken, except that when basal AP-III levels were measured 0.4 ml blood was withdrawn. Blood was immediately centrifuged in a microcentrifuge for one minute and plasma was frozen in plastic tubes placed on dry ice. Samples were kept in a -80° C. freezer until they were analyzed.
(§6) Thiorphan was dissolved in a minimal amount of 0.1 N NaOH to produce the sodium salt. The solution was immediately neutralized using 0.5 N HCl and diluted to a final concentration with 0.9% saline.
After taking the second sample, thiorphan was given as a bolus injection into the femoral artery and the line was flushed with 0.2 ml saline. The doses of thiorphan were 1,3,10 and 30 mg/kg; one set of rats received only a saline bolus as a control. Blood was taken 10,20,30 and 60 minutes after the injection of thiorphan. AP-III was infused during the entire experiment for a total of 90 minutes.
(§7) Plasma AP-III levels were analyzed by radioimmunoassay using a second antibody to separate free and bound AP-III. The label was ^125 I-AP-III that was purified by HPLC after iodination. Conditions were set so that 35-40% of the total counts were precipitated. The incubation medium contained sodium phosphate, pH 7.4, 0.25% bovine serum albumin (BSA), 0.5% sodium azide and 3% PEG-8000 (polyethylene glycol). The primary antibody was from a guinea pig immunized against AP-III. The incubations were done overnight at 6° C. The next day, 2 ml of 0.125% BSA was added to each tube and then they were centrifuged for 45 min at 3000 rpm. They were decanted and the radioactivity was counted in a Micromedic gamma counter. The standard curve contained 10 to 600 pg AP-III/tube. Only the linear portion of the curve was used for quantification. Plasma samples were diluted so that the AP-III concentrations were in the range of the standard curve.

[4] = Plasma AP-III levels (radioimmunoassay) in rats, second test: varied AP-III infusion rate, constant thiorphan dose; type: in vivo, rat; conditions: male, Sprague-Dawley, rat, in vivo, iv
Description: as §2, §3, §4, §5, §6
In the second test, the level of thiorphan was kept constant at 3 mg/kg and the rate of AP-III infusion was varied. AP-III was infused into the femoral vein for a total of 60 minutes at a rate of 150,450 and 900 ng/kg/min; another group of rats received only an infusion of dextrose/saline to determine if thiorphan affected the basal levels of AP-III. Blood was taken at 15 and 30 minutes after the start of the AP-III infusion to check for a steady state AP-III plasma concentration. After the 30 min sample, thiorphan (3 mg/kg) was injected arterially and additional blood samples were taken 15 and 30 min later (45 and 60 minutes after the start of the AP-III infusion).
as §7

[5] = (c) 40 μM AP-III, 20 μg RBBM, 100 nM inhibitor, 60 min, 25° C.
[6] = rabbit, kidney or brush border membranes

Structure (SMILES): C[C@H](NC(=O)[C@@H](CC(=O)NO)Cc1ccccc1)C(=O)O [(R,S) kelatorphan]
- Peak area as % Initial AP: AP [1, 5]: 16.5%
- Peak area as % Initial AP: AP + des Ser^1 -AP [1, 5]: 31.4%
- Peak area as % Initial AP: des Ser^1 -AP [1, 5]: 14.9%
- Effect of inhibitor on atrial peptide bioactivity during incubation with renal brush border membranes [1]: inhibit the loss of atrial peptide bioactivity

Structure (SMILES): C[C@H](NC(=O)[C@H](CC(=O)NO)Cc1ccccc1)C(=O)O [(S,S) kelatorphan]
- Peak area as % Initial AP: AP [1, 5]: 17.2%
- Peak area as % Initial AP: AP + des Ser^1 -AP [1, 5]: 49.3%
- Peak area as % Initial AP: des Ser^1 -AP [1, 5]: 32.1%
- Effect of inhibitor on atrial peptide bioactivity during incubation with renal brush border membranes [1]: inhibit the loss of atrial peptide bioactivity

Structure (SMILES): CC[C@H](C)[C@@H]1NC(=O)[C@H](CCCN=C(N)N)NC(=O)[C@H](CC(=O)O)NC(=O)[C@H]([C@@H](C)CC)NC(=O)[C@H](CCCN=C(N)N)NC(=O)CNC(=O)CNC(=O)[C@H](Cc2ccccc2)NC(=O)[C@@H](NC(=O)[C@H](CO)NC(=O)[C@@H](N)CO)CSSC[C@@H](C(=O)N[C@@H](CC(N)=O)C(=O)N[C@@H](CO)C(=O)N[C@@H](Cc2ccccc2)C(=O)N[C@@H](CCCN=C(N)N)C(=O)N[C@@H](Cc2ccc(O)cc2)C(=O)O)NC(=O)CNC(=O)[C@H](CC(C)C)NC(=O)CNC(=O)[C@H](CO)NC(=O)[C@H](CCC(N)=O)NC(=O)[C@H](C)NC(=O)CNC1=O [AP-III] (H-SSCFGGRIDRIGAQSGLGCNSFRY-OH; disulfide 3-19)
- remaining at 1 h, 40 μM ([2]; buffer or solvent): 100%
- remaining at 1 h, 40 μM [2, 6]: 3.3%
- Peak area as % Initial AP: AP ([1]; rabbit, kidney or brush border membranes, 1 h, 40 μM, pH 7.5): 2.1%
- Plasma AP-III concentration, stable level during infusion ([3]; 833 ng/kg/min): 9 to 11 ng/mL
- Plasma AP-III levels, constant level in control rats ([3]; 833 ng/kg/min): 11 to 12 ng/mL
- level at 20 min ([3]; 833 ng/kg/min): 9.6 ± 1.6 ng/mL
- level at 0.5 h ([3]; 833 ng/kg/min): 10.8 ± 1.1 ng/mL
- level at 40 min ([3]; 833 ng/kg/min): 11.2 ± 1.3 ng/mL
- level at 50 min ([3]; 833 ng/kg/min): 11.3 ± 1.1 ng/mL
- level at 1 h ([3]; 833 ng/kg/min): 11.7 ± 0.7 ng/mL
- level at 1.5 h ([3]; 833 ng/kg/min): 10.6 ± 1.4 ng/mL
- level at 20 min ([3]; 1 mg/kg): 9.2 ± 2.4 ng/mL
- level at 0.5 h ([3]; 1 mg/kg): 9.7 ± 1 ng/mL
- level at 20 min ([3]; 3 mg/kg): 10.1 ± 1.6 ng/mL
- level at 0.5 h ([3]; 3 mg/kg): 11 ± 1.1 ng/mL
- level at 20 min ([3]; 10 mg/kg): 9.7 ± 2.4 ng/mL
- level at 0.5 h ([3]; 10 mg/kg): 10.6 ± 2.9 ng/mL
- level at 20 min ([3]; 30 mg/kg): 9.2 ± 1.1 ng/mL
- level at 0.5 h ([3]; 30 mg/kg): 8.8 ± 1 ng/mL
- level at 0.25 h ([4]; 150 ng/kg/min): 0.9 ± 0.2 ng/mL
- level at 0.5 h ([4]; 150 ng/kg/min): 1 ± 0.6 ng/mL
- level at 0.25 h ([4]; 450 ng/kg/min): 4.2 ± 1 ng/mL
- level at 0.5 h ([4]; 450 ng/kg/min): 4.5 ± 1.2 ng/mL
- level at 0.25 h ([4]; 900 ng/kg/min): 11.2 ± 3.5 ng/mL
- level at 0.5 h ([4]; 900 ng/kg/min): 13.6 ± 1.8 ng/mL

Structure (SMILES): CC[C@H](C)[C@@H]1NC(=O)[C@H](CCCN=C(N)N)NC(=O)[C@H](CC(=O)O)NC(=O)[C@H]([C@@H](C)CC)NC(=O)[C@H](CCCN=C(N)N)NC(=O)CNC(=O)CNC(=O)[C@H](Cc2ccccc2)NC(=O)[C@@H](NC(=O)[C@H](CO)NC(=O)[C@@H](N)CO)CSSC[C@@H](C(=O)N[C@@H](CC(N)=O)C(=O)N[C@@H](CO)C(=O)O)NC(=O)CNC(=O)[C@H](CC(C)C)NC(=O)CNC(=O)[C@H](CO)NC(=O)[C@H](CCC(N)=O)NC(=O)[C@H](C)NC(=O)CNC1=O [AP-I] (H-SSCFGGRIDRIGAQSGLGCNS-OH; disulfide 3-19)
- remaining at 1 h, 40 μM ([2]; buffer or solvent): 100%
- Degradation of atrial peptide by proteolytic activity of renal brush border membranes [1]: degraded

Structure (SMILES): CC[C@H](C)[C@@H]1NC(=O)[C@H](CCCNC(=N)N)NC(=O)[C@H](CC(=O)O)NC(=O)[C@H](CCSC)NC(=O)[C@H](CCCNC(=N)N)NC(=O)CNC(=O)CNC(=O)[C@H](Cc2ccccc2)NC(=O)[C@@H](NC(=O)[C@H](CO)NC(=O)[C@H](CO)NC(=O)[C@H](CCCNC(=N)N)NC(=O)[C@H](CCCNC(=N)N)NC(=O)[C@H](CC(C)C)NC(=O)[C@@H](N)CO)CSSC[C@@H](C(=O)N[C@@H](CC(N)=O)C(=O)N[C@@H](CO)C(=O)N[C@@H](Cc2ccccc2)C(=O)N[C@@H](CCCNC(=N)N)C(=O)N[C@@H](Cc2ccc(O)cc2)C(=O)O)NC(=O)CNC(=O)[C@H](CC(C)C)NC(=O)CNC(=O)[C@H](CO)NC(=O)[C@H](CCC(N)=O)NC(=O)[C@H](C)NC(=O)CNC1=O [SLRR(Met^8)AP-III]
- remaining at 1 h, 40 μM ([2]; buffer or solvent): 100%
- remaining at 1 h, 40 μM [2, 6]: 0%
- Degradation of atrial peptide by proteolytic activity of renal brush border membranes [1]: degraded

Structure (SMILES): C[C@H](NC(=O)[C@@H](CC(=O)NO)Cc1ccccc1)C(=O)O [kelatorphan, [(R)-3-(N-hydroxy)carboxamido-2-benzylpropanoyl]-L-alanine]
- Effect of inhibitor on atrial peptide bioactivity during incubation with renal brush border membranes [1]: substantially prolonged or enhanced
